Assay results reported in the supplement of paper PMC10307832.

What follows are cell lines tested with CN(C)C(=N)NC(=N)N [Metformin] + C[C@]1(O)C[C@@H](c2nc(-c3ccc4ccc(-c5ccccc5)nc4c3)c3c(N)nccn32)C1 [Linsitinib] (partner 1 µM) (assay: relative viability (nuclei count vs DMSO), 5 days (fraction); higher = more cells survive). Conditions: first compound 10 µM.
Outline: (§1)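 Relative viability equals treated-well nuclei counts divided by vehicle-well nuclei counts. Counts came from 4× images of lung cancer cell lines grown in 1536-well plates for 5 days after pin-tool dosing on the day after seeding. Dosing used one drug alone or a fixed anchor-drug dose plus five library-drug doses (not always all listed) in √10 steps, and values are medians of duplicate plates.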

Cell Line | relative viability
PC-3 [JPC-3] | 0.895
PC-14 | 1.03
RERF-LC-KJ | 0.835
SK-LU-1 | 0.947
SK-MES-1 | 0.979
SW 1573 | 0.916
UMC-11 | 1.07

Same assay, conditions: first compound 31.62 µM

Cell Line | relative viability
PC-3 [JPC-3] | 1.01
PC-14 | 0.955
RERF-LC-KJ | 0.769
SK-LU-1 | 1.08
SK-MES-1 | 0.927
SW 1573 | 0.811
UMC-11 | 1.09

Same assay, conditions: first compound 100 µM

Cell Line | relative viability
PC-3 [JPC-3] | 0.902
PC-14 | 0.916
RERF-LC-KJ | 0.857
SK-LU-1 | 0.674
SK-MES-1 | 0.993
SW 1573 | 0.969
UMC-11 | 1.12

Same assay, conditions: first compound 316.23 µM

Cell Line | relative viability
PC-3 [JPC-3] | 0.918
PC-14 | 0.918
RERF-LC-KJ | 0.768
SK-LU-1 | 1.08
SK-MES-1 | 0.939
SW 1573 | 0.72
UMC-11 | 1.04

Same assay, conditions: first compound 1000 µM

Cell Line | relative viability
PC-3 [JPC-3] | 0.942
PC-14 | 1.03
RERF-LC-KJ | 0.829
SK-LU-1 | 1.03
SK-MES-1 | 1.02
SW 1573 | 0.996
UMC-11 | 1.14

These cell lines were tested with N#CC1(c2ccc(NC(=O)c3cccnc3NCc3ccncc3)cc2)CCCC1 [Apatinib] + COc1cccc2cc(-c3nc([C@H]4CC[C@H](C(=O)O)CC4)n4ncnc(N)c34)[nH]c12 [OSI-027] (partner 0.5 µM) in the same assay as above. Conditions: first compound 0.08 µM.
Outline: as §1

Cell Line | relative viability
PC-3 [JPC-3] | 0.747
PC-14 | 0.805
RERF-LC-KJ | 0.554
SK-LU-1 | 0.326
SK-MES-1 | 0.589
SW 1573 | 0.71
UMC-11 | 0.574

Same assay, conditions: first compound 0.253 µM

Cell Line | relative viability
PC-3 [JPC-3] | 0.639
PC-14 | 0.956
RERF-LC-KJ | 0.592
SK-LU-1 | 0.395
SK-MES-1 | 0.585
SW 1573 | 0.636
UMC-11 | 0.437

Same assay, conditions: first compound 0.8 µM

Cell Line | relative viability
PC-3 [JPC-3] | 0.627
PC-14 | 0.596
RERF-LC-KJ | 0.533
SK-LU-1 | 0.298
SK-MES-1 | 0.6
SW 1573 | 0.553
UMC-11 | 0.479

Same assay, conditions: first compound 2.53 µM

Cell Line | relative viability
PC-3 [JPC-3] | 0.517
PC-14 | 0.748
RERF-LC-KJ | 0.51
SK-LU-1 | 0.303
SK-MES-1 | 0.496
SW 1573 | 0.593
UMC-11 | 0.464

Same assay, conditions: first compound 8 µM

Cell Line | relative viability
PC-3 [JPC-3] | 0.571
PC-14 | 0.602
RERF-LC-KJ | 0.497
SK-LU-1 | 0.246
SK-MES-1 | 0.37
SW 1573 | 0.518
UMC-11 | 0.312
